The assay relates to Acanthamoeba polyphaga strain Ros cysts. Put plainly: Acanthamoeba contact lens disinfectant challenge test assay. In kind it is cell-based. The conditions noted are these: 25 ppm. How it is done: Acanthamoeba polyphaga strain Ros were used in this study. Trophozoites were maintained at 30° C. in an axenic broth medium composed of 20.0 g Biosate™ (Becton Dickinson, United Kingdom), 5.0 g glucose, 0.3 g KH2PO4, 10 μg vitamin B12 and 15.0 mg L-methionine per litre of deionized water. The pH was adjusted to 6.5-6.6 with 1 M NaOH before autoclaving at 121° C. for 12 minutes. Penicillin and streptomycin were added to a final concentration of 150 μ/ml before use.
Cysts were prepared from trophozoite cultures using the axenic medium supplemented with 50 mM MgCl2. The encystment medium was inoculated with approximately 2×10^5 /ml trophoxoites for culture at 30° C. in a shaking incubator (100 rpm) for 7 days. Cells were enumerated using haemocytometer counting.
The challenge test assay protocol, as described by R. Hughes and S. Kilvington, Comparison of Hydrogen Peroxide Contact Lens Disinfection Systems and Solutions Against Acanthamoeba Polyphaga, Antimicrob. Agents Chemother. 45: 2038-2043, (2001), is set forth in detail below. The number of surviving organisms was calculated as described by L. J. Reed and H. Muench, A Simple Method for Estimating Fifty Percent Endpoints, Am. J. Hyg., 27: 493-497, (1938). Statistical analysis of the data was by One Way Analysis Of Variance (ANOVA).
1. Fifty ml polypropylene centrifuge tubes were aged overnight with 15 ml of disinfectant solution, i.e., ReNue™ 02 (Bausch & Lomb, Rochester, N.Y.). The tubes were then drained, the disinfectant solution discarded, and refilled with 10 ml of fresh disinfectant solution for testing.
2. To a flat-bottomed, 96 well microtitre plate having 8 columns labelled “A” through “H”, 180 μl of neutralizer, i.e., 0.1 percent Tween™ 80 (Baker, Inc., Phillipsburg, N.J.) in one-quarter strength Ringer's solution for biguanide based disinfectants, was added to the outer wells of columns A and H. 180 μl of one-quarter strength Ringer's solution was then added to the remaining inner wells of columns B through G.
3. Amoebae were adjusted to 5×10^6 /ml in one-quarter strength Ringer's solution and 100 μl (5×10^5) was added to 10 ml of disinfectant (5×10^4 /ml) or saline control.
4. At time intervals of 0, 1, 2, 3, 4, 6 and 24 hours:
i. vortexed tubes 5 seconds;
ii. in quadruplet, removed 20 μl (1000 cells) and added to neutralizer wells for the given time-point (i.e., column A, rows 9-12) and made serial 10-fold dilutions across the microtitre plate (i.e., to column D, rows 9-12); and
iii. repeated for each time point.
5. One drop of live E. coli from 3 ml pastette (25 μl of approximately 5×10^7 bacteria/ml) was then added to each well.
6. The plate was then incubated at 32° C. for up to 7 days.
7. The plate was inspected daily for 7 days for the presence of amoebal growth, either trophozoite replication or excystment and trophozoite replication, in the wells.
8. The number of surviving organisms was then estimated at each time interval by Reed and Muench computation and set forth below in Table 3.

This is an account of results in patent publication US20040115160A1, “Quaternary ammonium esters for disinfection and preservation” (priority 2002, published 2004).

Structures are written as SMILES.

For `CCCCCCCCCCCCCC(=O)OCCC[N+](C)(C)Cc1ccccc1` [Compound 1, N-myristoyloxypropyl-N-benzyl-N,N-dimethylammonium chloride], the “Amoebae Log Kill, Cysts” value (1 Hr.) is listed as 3.30 Log and the “Amoebae Log Kill, Cysts” value (4 Hr.) is given as 3.30 Log.
